Results from the supplement of paper PMC10307832.

How the values were obtained:
Assay in all cases: relative viability (nuclei count vs DMSO), 5 days (fraction); higher = more cells survive
[1] = compound: CC1CC(=O)N(C2=CN=C(N=C2N1C3CCCC3)NC4=C(C=C(C=C4)C(=O)NC5CCN(CC5)C)OC)C [NPK76-II-72-1] + C[C@]1(O)C[C@@H](c2nc(-c3ccc4ccc(-c5ccccc5)nc4c3)c3c(N)nccn32)C1 [Linsitinib] (partner 1 µM)
Outline: (§1)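 A single step with final 0.05% Triton X-100, 1% formaldehyde and 1 ug/ml Hoechst fixed the cells and stained nuclei 5 days after treatment. Lung cancer cell lines in 1536-well plates had been treated by pin tool the day after seeding with one drug alone or a fixed anchor-drug dose plus five library-drug doses (not always all listed) in √10 steps, and nuclei were counted on 4× images. Relative viability is the ratio of nuclei in treated wells to nuclei in vehicle wells, taken as the median of duplicate plates.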

[2] = compound: CC1CC(=O)N(C2=CN=C(N=C2N1C3CCCC3)NC4=C(C=C(C=C4)C(=O)NC5CCN(CC5)C)OC)C [NPK76-II-72-1] + N=C(N)NC(=N)NCCc1ccccc1 [Phenformin] (partner 250 µM)
Outline: as §1

[3] = compound: CC[C@@H]1C(=O)N(C)c2cnc(Nc3ccc(C(=O)NC4CCN(C)CC4)cc3OC)nc2N1C1CCCC1 [BI-2536] + CCNC(=O)c1noc(-c2cc(C(C)C)c(O)cc2O)c1-c1ccc(CN2CCOCC2)cc1 [Luminespib] (partner 0.01 µM)
Outline: as §1

[4] = compound: CC1CC(=O)N(C2=CN=C(N=C2N1C3CCCC3)NC4=C(C=C(C=C4)C(=O)NC5CCN(CC5)C)OC)C [NPK76-II-72-1] + COc1cccc2cc(-c3nc([C@H]4CC[C@H](C(=O)O)CC4)n4ncnc(N)c34)[nH]c12 [OSI-027] (partner 0.5 µM)
Outline: as §1

Cell Line | relative viability ([1]; first compound 0.01 µM) | relative viability ([1]; first compound 0.03162 µM) | relative viability ([1]; first compound 0.1 µM) | relative viability ([1]; first compound 0.3162 µM) | relative viability ([1]; first compound 1 µM) | relative viability ([2]; first compound 0.01 µM) | relative viability ([2]; first compound 0.03162 µM) | relative viability ([2]; first compound 0.1 µM) | relative viability ([2]; first compound 0.3162 µM) | relative viability ([2]; first compound 1 µM) | relative viability ([3]; first compound 0.01 µM) | relative viability ([3]; first compound 0.03162 µM) | relative viability ([3]; first compound 0.1 µM) | relative viability ([3]; first compound 0.3162 µM) | relative viability ([3]; first compound 1 µM) | relative viability ([4]; first compound 0.01 µM) | relative viability ([4]; first compound 0.03162 µM) | relative viability ([4]; first compound 0.1 µM) | relative viability ([4]; first compound 0.3162 µM) | relative viability ([4]; first compound 1 µM)
PC-3 [JPC-3] | 0.927 | 0.91 | 0.936 | 0.935 | 0.963 | 0.475 | 0.484 | 0.487 | 0.453 | 0.472 | 0.705 | 0.683 | 0.496 | 0.215 | 0.205 | 0.664 | 0.742 | 0.78 | 0.711 | 0.889
BEN | 0.946 | 1.01 | 0.87 | 0.881 | 0.879 | 0.229 | 0.228 | 0.276 | 0.245 | 0.253 | 0.486 | 0.611 | 0.282 | 0.158 | 0.217 | 0.285 | 0.292 | 0.273 | 0.295 | 0.318
NCI-H1666 | 0.78 | 0.815 | 0.783 | 0.8 | 0.79 | 0.509 | 0.581 | 0.577 | 0.584 | 0.583 | 1.01 | 0.933 | 0.866 | 0.382 | 0.34 | 0.802 | 0.871 | 0.82 | 0.777 | 0.975
LC-2-ad | 0.78 | 0.767 | 0.854 | 0.801 | 0.834 | 0.531 | 0.607 | 0.558 | 0.494 | 0.665 | 0.897 | 0.319 | 0.325 | 0.289 | 0.375 | 0.768 | 0.885 | 0.826 | 0.791 | 0.954
SK-LU-1 | 1.07 | 1.09 | 1.16 | 1.02 | 1.33 | 0.517 | 0.585 | 0.662 | 0.528 | 0.537 | 0.216 | 0.2 | 0.167 | 0.174 | 0.169 | 0.321 | 0.355 | 0.368 | 0.361 | 0.406
COR-L 105 | 1.01 | 0.936 | 1.09 | 0.738 | 1.13 | 0.491 | 0.541 | 0.409 | 0.474 | 0.551 | 0.882 | 0.514 | 0.434 | 0.325 | 0.327 | 0.644 | 0.724 | 0.718 | 0.609 | 1.09
NCI-H1975 | 0.956 | 0.921 | 0.913 | 1.01 | 1.03 | 0.398 | 0.424 | 0.395 | 0.43 | 0.437 | 0.253 | 0.209 | 0.231 | 0.158 | 0.149 | 0.698 | 0.712 | 0.753 | 0.72 | 0.753
NCI-H1993 | 0.728 | 0.768 | 0.576 | 0.657 | 0.778 | 0.55 | 0.49 | 0.515 | 0.553 | 0.521 | 0.856 | 0.747 | 0.521 | 0.602 | 0.515 | 0.532 | 0.534 | 0.51 | 0.528 | 0.549
